Assay results published in publication PMC9234961 (Journal of Medicinal Chemistry, 2022).
Where two headings read alike, the source gives them in different places.

Tests used:
kinases (468) [1] = target: kinases (468) (Homo sapiens, UniProt Q86UE8); conditions: kinase TLK2 (Entrez TLK2); compound concentration 1000 nM
kinases (468) [2] = target: kinases (468) (Homo sapiens, UniProt Q9Y2H9); conditions: MAST1; 1000 nM
kinases (468) [3] = target: kinases (468) (Homo sapiens, UniProt Q13188); conditions: MST2 (STK3); 1000 nM
kinases (468) [4] = target: kinases (468) (Homo sapiens, UniProt Q9UF33); conditions: EPHA6; 1000 nM
kinases (468) [5] = target: kinases (468) (Homo sapiens, UniProt P48736); conditions: PIK3CG; 1000 nM
kinases (468) [6] = target: kinases (468) (Homo sapiens, UniProt Q9BRS2); conditions: kinase RIOK1 (Entrez RIOK1); compound concentration 1000 nM
kinases (468) [7] = target: kinases (468) (Homo sapiens, UniProt Q9P2K8, S808G); conditions: GCN2(Kin.Dom.2,S808G) (EIF2AK4); 1000 nM
kinases (468) [8] = target: kinases (468) (Homo sapiens, UniProt Q8NEB9); conditions: kinase VPS34 (Entrez PIK3C3); compound concentration 1000 nM
kinases (468) [9] = target: kinases (468) (Homo sapiens, UniProt Q9P0L2); conditions: MARK1; 1000 nM
kinases (468) [10] = target: kinases (468) (Homo sapiens, UniProt P17612); conditions: PKAC-alpha (PRKACA); 1000 nM
kinases (468) [11] = target: kinases (468) (Homo sapiens, UniProt O94768); conditions: DRAK2 (STK17B); 1000 nM
kinases (468) [12] = target: kinases (468) (Homo sapiens, UniProt Q9BWU1); conditions: CDK11 (CDK19); 1000 nM
kinases (468) [13] = target: kinases (468) (Homo sapiens, UniProt P21802); conditions: FGFR2; 1000 nM
kinases (468) [14] = target: kinases (468) (Homo sapiens, UniProt O94806); conditions: PRKD3; 1000 nM
kinases (468) [15] = target: kinases (468) (Homo sapiens, UniProt P22607, G697C); conditions: FGFR3(G697C); 1000 nM
kinases (468) [16] = target: kinases (468) (Homo sapiens, UniProt Q8WU08); conditions: kinase YANK1 (Entrez STK32A); compound concentration 1000 nM
kinases (468) [17] = target: kinases (468) (Homo sapiens, UniProt P15735); conditions: PHKG2; 1000 nM
kinases (468) [18] = target: kinases (468) (Homo sapiens, UniProt P57058); conditions: HUNK; 1000 nM
kinases (468) [19] = target: kinases (468) (Homo sapiens, UniProt P37173); conditions: kinase TGFBR2 (Entrez TGFBR2); compound concentration 1000 nM
kinases (468) [20] = target: kinases (468) (Homo sapiens, UniProt Q14004); conditions: CDC2L5 (CDK13); 1000 nM
kinases (468) [21] = target: kinases (468) (Homo sapiens, UniProt P10721, D816V); conditions: KIT(D816V); 1000 nM
kinases (468) [22] = target: kinases (468) (Homo sapiens, UniProt O14976); conditions: GAK; 1000 nM
kinases (468) [23] = target: kinases (468) (Homo sapiens, UniProt Q96J92); conditions: kinase WNK4 (Entrez WNK4); compound concentration 1000 nM
kinases (468) [24] = target: kinases (468) (Homo sapiens, UniProt P30530); conditions: AXL; 1000 nM
kinases (468) [25] = target: kinases (468) (Homo sapiens, UniProt Q16513); conditions: PKN2; 1000 nM
kinases (468) [26] = target: kinases (468) (Homo sapiens, UniProt P21127); conditions: CDC2L1 (CDK11B); 1000 nM
kinases (468) [27] = target: kinases (468) (Homo sapiens, UniProt Q9Y6R4); conditions: MAP3K4; 1000 nM
kinases (468) [28] = target: kinases (468) (Homo sapiens, UniProt Q15349); conditions: compound concentration 1000 nM
kinases (468) [29] = target: kinases (468) (Homo sapiens, UniProt Q9NQU5); conditions: PAK6; 1000 nM
kinases (468) [30] = target: kinases (468) (Homo sapiens, UniProt Q9NRP7); conditions: kinase STK36 (Entrez STK36); compound concentration 1000 nM
kinases (468) [31] = target: kinases (468) (Homo sapiens, UniProt Q9BX84); conditions: kinase TRPM6 (Entrez TRPM6); compound concentration 1000 nM
kinases (468) [32] = target: kinases (468) (Homo sapiens, UniProt P53350); conditions: PLK1; 1000 nM
kinases (468) [33] = target: kinases (468) (Homo sapiens, UniProt Q13177); conditions: PAK2; 1000 nM
kinases (468) [34] = target: kinases (468) (Homo sapiens, UniProt P49840); conditions: GSK3A; 1000 nM

Chain of kinases (468) (Homo sapiens, UniProt Q15349) (Q15349 whole entry): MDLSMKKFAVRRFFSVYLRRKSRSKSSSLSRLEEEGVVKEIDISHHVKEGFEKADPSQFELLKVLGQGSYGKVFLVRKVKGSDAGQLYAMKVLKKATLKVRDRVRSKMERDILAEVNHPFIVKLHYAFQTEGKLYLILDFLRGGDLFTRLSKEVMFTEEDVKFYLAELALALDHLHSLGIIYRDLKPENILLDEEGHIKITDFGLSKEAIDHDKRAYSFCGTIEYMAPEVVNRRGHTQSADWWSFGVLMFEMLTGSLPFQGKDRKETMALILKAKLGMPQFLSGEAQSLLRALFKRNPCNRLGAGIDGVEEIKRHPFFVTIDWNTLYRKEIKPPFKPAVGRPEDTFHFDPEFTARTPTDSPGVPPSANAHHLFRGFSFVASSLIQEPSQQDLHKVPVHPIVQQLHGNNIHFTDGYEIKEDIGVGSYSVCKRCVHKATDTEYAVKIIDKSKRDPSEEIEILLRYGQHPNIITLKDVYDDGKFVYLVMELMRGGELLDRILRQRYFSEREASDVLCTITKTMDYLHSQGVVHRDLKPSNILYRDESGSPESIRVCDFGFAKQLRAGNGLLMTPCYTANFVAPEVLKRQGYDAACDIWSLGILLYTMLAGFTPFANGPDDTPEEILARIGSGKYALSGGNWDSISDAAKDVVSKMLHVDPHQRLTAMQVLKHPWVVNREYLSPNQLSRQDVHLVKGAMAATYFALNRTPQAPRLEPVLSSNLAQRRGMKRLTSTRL
Chain of kinases (468) (Homo sapiens, UniProt P53350) (P53350 whole entry): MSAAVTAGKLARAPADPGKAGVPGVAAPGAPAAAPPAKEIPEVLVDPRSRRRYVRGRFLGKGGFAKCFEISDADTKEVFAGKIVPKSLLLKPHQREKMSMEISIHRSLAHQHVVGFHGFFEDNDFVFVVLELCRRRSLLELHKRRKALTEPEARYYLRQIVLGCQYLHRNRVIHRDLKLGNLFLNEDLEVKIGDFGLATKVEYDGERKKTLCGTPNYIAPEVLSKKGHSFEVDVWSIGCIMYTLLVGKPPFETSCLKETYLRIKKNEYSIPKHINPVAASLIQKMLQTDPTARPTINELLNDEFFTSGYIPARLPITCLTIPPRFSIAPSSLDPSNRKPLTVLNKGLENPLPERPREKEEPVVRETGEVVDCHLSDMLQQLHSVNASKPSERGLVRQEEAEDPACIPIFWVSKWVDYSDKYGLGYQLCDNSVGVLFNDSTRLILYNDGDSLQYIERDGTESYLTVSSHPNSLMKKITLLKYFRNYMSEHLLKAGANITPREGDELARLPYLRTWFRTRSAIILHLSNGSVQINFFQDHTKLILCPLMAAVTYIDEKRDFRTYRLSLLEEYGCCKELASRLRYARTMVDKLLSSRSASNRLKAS
Chain of kinases (468) (Homo sapiens, UniProt Q9P2K8, S808G) (Q9P2K8 whole entry S808G): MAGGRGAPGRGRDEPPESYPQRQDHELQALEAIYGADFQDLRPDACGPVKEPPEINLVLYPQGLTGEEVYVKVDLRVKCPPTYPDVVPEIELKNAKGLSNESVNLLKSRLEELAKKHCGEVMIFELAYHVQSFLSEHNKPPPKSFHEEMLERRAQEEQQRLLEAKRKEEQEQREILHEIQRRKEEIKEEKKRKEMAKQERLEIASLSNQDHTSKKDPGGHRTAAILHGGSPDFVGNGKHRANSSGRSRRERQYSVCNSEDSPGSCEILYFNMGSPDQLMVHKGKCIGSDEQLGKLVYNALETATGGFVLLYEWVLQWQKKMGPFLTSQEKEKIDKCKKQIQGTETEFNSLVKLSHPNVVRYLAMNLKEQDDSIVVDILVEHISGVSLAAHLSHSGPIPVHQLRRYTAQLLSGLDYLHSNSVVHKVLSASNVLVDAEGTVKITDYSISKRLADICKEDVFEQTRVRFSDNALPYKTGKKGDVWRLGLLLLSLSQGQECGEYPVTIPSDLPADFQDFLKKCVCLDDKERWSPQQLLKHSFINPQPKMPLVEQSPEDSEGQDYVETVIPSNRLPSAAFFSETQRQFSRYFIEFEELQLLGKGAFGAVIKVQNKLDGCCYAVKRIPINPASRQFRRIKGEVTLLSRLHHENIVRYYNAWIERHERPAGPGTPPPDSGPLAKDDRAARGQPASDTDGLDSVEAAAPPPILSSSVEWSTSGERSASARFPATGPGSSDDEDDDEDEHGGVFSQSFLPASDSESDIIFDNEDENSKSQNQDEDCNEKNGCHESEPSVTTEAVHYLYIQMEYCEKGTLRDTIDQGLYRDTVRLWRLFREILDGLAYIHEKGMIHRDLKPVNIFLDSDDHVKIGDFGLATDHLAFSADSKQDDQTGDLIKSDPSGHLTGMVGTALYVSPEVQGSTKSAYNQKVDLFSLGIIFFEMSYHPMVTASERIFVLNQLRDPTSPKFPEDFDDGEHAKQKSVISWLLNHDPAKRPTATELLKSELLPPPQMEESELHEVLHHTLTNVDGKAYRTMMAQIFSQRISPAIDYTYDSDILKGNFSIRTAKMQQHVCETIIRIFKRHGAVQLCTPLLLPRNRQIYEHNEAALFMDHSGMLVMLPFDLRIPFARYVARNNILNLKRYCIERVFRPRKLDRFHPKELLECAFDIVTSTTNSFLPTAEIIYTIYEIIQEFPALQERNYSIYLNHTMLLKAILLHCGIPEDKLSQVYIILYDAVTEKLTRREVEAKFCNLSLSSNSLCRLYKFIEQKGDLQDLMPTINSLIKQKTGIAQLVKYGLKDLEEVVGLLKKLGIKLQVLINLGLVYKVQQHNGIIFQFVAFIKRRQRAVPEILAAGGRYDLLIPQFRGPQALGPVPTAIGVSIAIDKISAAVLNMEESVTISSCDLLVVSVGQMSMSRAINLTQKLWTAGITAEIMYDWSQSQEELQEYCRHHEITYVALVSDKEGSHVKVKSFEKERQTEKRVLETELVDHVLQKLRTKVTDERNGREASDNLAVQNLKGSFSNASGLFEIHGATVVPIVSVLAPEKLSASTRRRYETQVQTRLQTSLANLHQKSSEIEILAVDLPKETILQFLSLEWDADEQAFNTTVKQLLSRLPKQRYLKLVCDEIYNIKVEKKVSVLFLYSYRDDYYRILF
Chain of kinases (468) (Homo sapiens, UniProt Q86UE8) (Q86UE8 whole entry): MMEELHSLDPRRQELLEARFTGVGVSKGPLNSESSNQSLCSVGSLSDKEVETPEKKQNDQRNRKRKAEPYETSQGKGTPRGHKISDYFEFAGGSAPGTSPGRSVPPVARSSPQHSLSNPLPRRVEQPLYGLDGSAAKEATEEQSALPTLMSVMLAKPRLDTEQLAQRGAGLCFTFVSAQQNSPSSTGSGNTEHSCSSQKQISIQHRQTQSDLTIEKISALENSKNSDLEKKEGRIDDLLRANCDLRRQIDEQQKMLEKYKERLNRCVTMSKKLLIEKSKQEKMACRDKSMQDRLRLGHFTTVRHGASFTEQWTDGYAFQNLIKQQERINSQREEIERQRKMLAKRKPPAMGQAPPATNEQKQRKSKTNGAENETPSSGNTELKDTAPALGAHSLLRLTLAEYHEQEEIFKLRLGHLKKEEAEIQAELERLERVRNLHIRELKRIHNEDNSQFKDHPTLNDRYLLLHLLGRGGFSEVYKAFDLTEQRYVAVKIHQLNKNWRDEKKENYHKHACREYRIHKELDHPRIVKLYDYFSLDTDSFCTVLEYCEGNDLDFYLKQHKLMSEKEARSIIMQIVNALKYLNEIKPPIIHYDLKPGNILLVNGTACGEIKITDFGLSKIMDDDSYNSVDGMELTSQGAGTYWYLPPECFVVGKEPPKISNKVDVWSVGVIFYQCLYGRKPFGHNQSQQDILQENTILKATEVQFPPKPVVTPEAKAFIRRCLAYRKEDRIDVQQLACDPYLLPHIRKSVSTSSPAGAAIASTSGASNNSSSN
Chain of kinases (468) (Homo sapiens, UniProt P57058) (P57058 whole entry): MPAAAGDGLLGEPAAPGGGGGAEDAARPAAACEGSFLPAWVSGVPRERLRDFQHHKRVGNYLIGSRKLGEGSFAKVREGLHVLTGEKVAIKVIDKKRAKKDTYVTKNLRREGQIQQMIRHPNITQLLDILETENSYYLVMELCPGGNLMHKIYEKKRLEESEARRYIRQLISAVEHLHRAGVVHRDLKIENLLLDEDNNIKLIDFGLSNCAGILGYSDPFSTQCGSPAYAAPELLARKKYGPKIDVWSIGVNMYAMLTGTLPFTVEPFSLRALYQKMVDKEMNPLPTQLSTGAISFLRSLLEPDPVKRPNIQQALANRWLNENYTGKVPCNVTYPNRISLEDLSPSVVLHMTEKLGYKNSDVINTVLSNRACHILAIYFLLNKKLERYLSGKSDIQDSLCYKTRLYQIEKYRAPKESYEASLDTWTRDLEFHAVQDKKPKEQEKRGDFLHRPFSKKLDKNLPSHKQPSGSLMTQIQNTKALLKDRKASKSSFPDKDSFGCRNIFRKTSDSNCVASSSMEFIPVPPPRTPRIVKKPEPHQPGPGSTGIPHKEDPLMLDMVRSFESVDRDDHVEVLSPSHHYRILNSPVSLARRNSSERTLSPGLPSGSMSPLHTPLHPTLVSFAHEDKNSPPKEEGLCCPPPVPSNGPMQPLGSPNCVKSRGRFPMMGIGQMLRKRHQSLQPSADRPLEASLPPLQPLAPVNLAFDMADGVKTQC
Chain of kinases (468) (Homo sapiens, UniProt Q9BRS2) (Q9BRS2 whole entry): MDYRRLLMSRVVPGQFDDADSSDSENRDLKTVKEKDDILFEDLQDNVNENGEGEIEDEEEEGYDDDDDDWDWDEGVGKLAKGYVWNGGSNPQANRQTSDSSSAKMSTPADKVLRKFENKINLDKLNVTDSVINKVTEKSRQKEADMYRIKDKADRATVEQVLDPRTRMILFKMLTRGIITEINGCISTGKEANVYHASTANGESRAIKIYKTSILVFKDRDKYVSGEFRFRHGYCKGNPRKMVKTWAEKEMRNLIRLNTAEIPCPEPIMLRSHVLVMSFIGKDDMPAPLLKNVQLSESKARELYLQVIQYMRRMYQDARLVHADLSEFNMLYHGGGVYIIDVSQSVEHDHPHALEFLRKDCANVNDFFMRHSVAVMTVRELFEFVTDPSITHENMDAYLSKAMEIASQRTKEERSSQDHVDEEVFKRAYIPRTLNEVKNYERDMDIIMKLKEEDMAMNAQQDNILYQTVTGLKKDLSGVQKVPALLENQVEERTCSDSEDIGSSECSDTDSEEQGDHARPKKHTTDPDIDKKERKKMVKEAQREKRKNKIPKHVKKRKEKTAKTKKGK

C[C@H]1C[C@@H](O)CN(c2ncc(Cl)c(Nc3ccc4c(c3)c3c(c(=O)n4C)OCC(F)(F)[C@H](C4CC4)N3)n2)C1 [CCT373566_9A]
Percent Control (kinases (468) [1]): 100%
Percent Control (kinases (468) [2]): 100%
Percent Control (kinases (468) [3]): 100%
Percent Control (kinases (468) [4]): 100%
Percent Control (kinases (468) [5]): 98%
Percent Control (kinases (468) [6]): 78%
Percent Control (kinases (468) [7]): 100%
Percent Control (kinases (468) [8]): 80%
Percent Control (kinases (468) [9]): 100%
Percent Control (kinases (468) [10]): 100%
Percent Control (kinases (468) [11]): 98%
Percent Control (kinases (468) [12]): 99%
Percent Control (kinases (468) [13]): 100%
Percent Control (kinases (468) [14]): 75%
Percent Control (kinases (468) [15]): 99%
Percent Control (kinases (468) [16]): 98%
Percent Control (kinases (468) [17]): 100%
Percent Control (kinases (468) [18]): 100%
Percent Control (kinases (468) [19]): 100%
Percent Control (kinases (468) [20]): 99%
Percent Control (kinases (468) [21]): 100%
Percent Control (kinases (468) [22]): 86%
Percent Control (kinases (468) [23]): 42%
Percent Control (kinases (468) [24]): 95%
Percent Control (kinases (468) [25]): 100%
Percent Control (kinases (468) [26]): 100%
Percent Control (kinases (468) [27]): 100%
Percent Control (kinases (468) [28]; kinase RSK3(Kin.Dom.1-N-terminal) (Entrez RPS6KA2)): 100%
Percent Control (kinases (468) [28]; kinase RSK3(Kin.Dom.2-C-terminal) (Entrez RPS6KA2)): 83%
Percent Control (kinases (468) [29]): 93%
Percent Control (kinases (468) [30]): 91%
Percent Control (kinases (468) [31]): 95%
Percent Control (kinases (468) [32]): 83%
Percent Control (kinases (468) [33]): 100%
Percent Control (kinases (468) [34]): 95%
